Key:
Recombinant IKKβ = target: T1, Recombinant IKKβ (Homo sapiens, UniProt O14920); assay: DELFIA IKKβ kinase assay (apparent Ki, Cheng-Prusoff); type: biochemical; settings: DELFIA assay (first line of an example)
T1 construct: purchased Millipore, Dundee, UK
T1 sequence (O14920 1-756): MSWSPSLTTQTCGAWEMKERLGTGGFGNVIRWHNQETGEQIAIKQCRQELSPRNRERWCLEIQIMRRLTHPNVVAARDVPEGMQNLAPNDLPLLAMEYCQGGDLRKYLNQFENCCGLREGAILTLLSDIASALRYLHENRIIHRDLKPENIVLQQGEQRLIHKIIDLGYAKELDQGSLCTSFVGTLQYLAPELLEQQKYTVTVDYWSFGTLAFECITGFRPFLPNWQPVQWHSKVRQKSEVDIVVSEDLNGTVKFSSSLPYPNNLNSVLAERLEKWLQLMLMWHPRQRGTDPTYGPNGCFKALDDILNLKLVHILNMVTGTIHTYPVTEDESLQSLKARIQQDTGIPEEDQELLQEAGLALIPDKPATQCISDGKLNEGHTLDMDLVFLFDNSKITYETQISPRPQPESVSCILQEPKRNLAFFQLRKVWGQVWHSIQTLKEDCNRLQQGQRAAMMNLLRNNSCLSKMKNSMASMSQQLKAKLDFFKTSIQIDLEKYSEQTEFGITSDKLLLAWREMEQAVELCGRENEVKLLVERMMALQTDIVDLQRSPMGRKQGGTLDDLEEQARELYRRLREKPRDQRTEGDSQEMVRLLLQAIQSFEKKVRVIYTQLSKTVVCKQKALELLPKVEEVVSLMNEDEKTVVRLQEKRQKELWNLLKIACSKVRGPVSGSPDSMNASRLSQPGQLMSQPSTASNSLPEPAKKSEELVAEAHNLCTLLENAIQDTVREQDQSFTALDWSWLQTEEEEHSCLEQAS
How it was run: (§1)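 Recombinant IKKα or IKKβ (37 nM) with 0.375 μM biotinylated IκB-α (Ser32) peptide and 40 μM ATP in 40 mM Tris-HCl pH 7.5, 20 mM MgCl2, 60 min at 30° C. Phospho-substrate captured on streptavidin and detected by anti-phospho-IκB-α plus europium anti-mouse IgG time-resolved fluorescence; apparent Ki via Cheng-Prusoff.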

Recombinant IKKα = target: T2, Recombinant IKKα (Homo sapiens, UniProt O15111); assay: DELFIA IKKα kinase assay (apparent Ki, Cheng-Prusoff); type: biochemical; settings: DELFIA assay (first line of an example)
T2 construct: purchased Millipore, Dundee, UK
T2 sequence (O15111 1-745): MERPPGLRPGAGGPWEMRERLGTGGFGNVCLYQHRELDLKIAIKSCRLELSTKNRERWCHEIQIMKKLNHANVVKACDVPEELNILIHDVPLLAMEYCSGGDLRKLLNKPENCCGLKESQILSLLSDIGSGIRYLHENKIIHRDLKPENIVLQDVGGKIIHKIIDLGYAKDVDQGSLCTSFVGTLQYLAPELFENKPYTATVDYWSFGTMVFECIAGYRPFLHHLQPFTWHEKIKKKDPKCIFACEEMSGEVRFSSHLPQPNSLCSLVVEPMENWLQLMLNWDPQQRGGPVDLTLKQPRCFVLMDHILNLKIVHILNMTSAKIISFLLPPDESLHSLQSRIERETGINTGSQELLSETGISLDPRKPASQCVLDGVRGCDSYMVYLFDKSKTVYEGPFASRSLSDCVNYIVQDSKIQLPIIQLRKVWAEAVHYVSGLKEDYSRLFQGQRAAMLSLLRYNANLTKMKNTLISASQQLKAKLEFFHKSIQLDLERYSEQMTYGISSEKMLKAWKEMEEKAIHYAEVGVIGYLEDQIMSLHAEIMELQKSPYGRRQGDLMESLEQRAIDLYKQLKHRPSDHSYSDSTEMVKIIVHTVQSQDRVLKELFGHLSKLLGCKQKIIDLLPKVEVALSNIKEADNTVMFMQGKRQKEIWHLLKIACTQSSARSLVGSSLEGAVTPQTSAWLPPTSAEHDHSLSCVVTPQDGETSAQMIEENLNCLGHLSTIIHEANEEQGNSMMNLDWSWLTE
How it was run: as §1

Row | Compound | Ki (Recombinant IKKβ) [nM] | Ki (Recombinant IKKα) [nM]
1 | COC(=O)Nc1cc(-c2cc(-c3ccc(CCN4CCOCC4)cc3)c3[nH]nc(N)c3c2)ccn1 [Example 330, Methyl (4-(3-amino-7-(4-(2-morpholinoethyl)phenyl)-1H-indazol-5-yl)pyridin-2-yl)carbamate] | > 10000 | > 10000
2 | COC(=O)Nc1cc(-c2cc(-c3cccc(CN4CCOCC4)c3)c3[nH]nc(N)c3c2)ccn1 [Example 334, Methyl (4-(3-amino-7-(3-(morpholinomethyl)phenyl)-1H-indazol-5-yl)pyridin-2-yl)carbamate] | 429 | 38
3 | Nc1n[nH]c2ccc(-c3ccnc(NC(=O)CC4CCCCC4)c3)cc12 [Example 335, N-(4-(3-Amino-1H-indazol-5-yl)pyridin-2-yl)-2-cyclohexylacetamide] | 4200 | 340
4 | CC(C)(C)C#Cc1cc(-c2cc(N)ncc2C#N)cc2c(N)n[nH]c12 [Example 336, 6-Amino-4-(3-amino-7-(3,3-dimethylbut-1-yn-1-yl)-1H-indazol-5-yl)nicotinonitrile] | > 10000 | > 10000
